Entries after “also recorded” stand apart in the source; their conditions may differ.
Experiments:
epicardium = test: Open-chest rodent survival model of epicardial RF ablation after IV quercetin; assay type: in vivo; settings: for Lesion Depth: 10 mg/kg
Experimental: Using an open-chest rodent survival model and a custom-made catheter, RF was applied to the epicardium at 3 W for 20 seconds after infusion of a HSP inhibitor, intravenous quercetin (n=20, 10 mg/kg), or control (n=20). Animals were sacrificed at 1 (n=10 each) and 24 hours (n=10 each) after ablation. RFA lesions were stained and analyzed under microscopy.

adenocarcinoma tumor = settings: combined quercetin and RF energy; cited from earlier work
myocardium = settings: porcine model; cited from earlier work
[1] = 24 hours after RFA, 3 W for 20 seconds, IV 10 mg/kg, N 10

SMILES: O=c1c(O)c(-c2ccc(O)c(O)c2)oc2cc(O)cc(O)c12 [Quercetin, 3,3′,4′,5,7-pentahydroxyflavone]
- ablation lesions analyzed at 1 hour after RFA (epicardium; 1 hour after RFA, IV 10 mg/kg): did not acutely result in larger ablation lesions
- Volume (epicardium; [1]): 37.6 ± 10.5 µL
- Lesion Depth (epicardium; [1]): 1.8 ± 0.3 mm
- Lesion Depth (epicardium; 24 hours after RFA, 3 W for 20 seconds, IV 10 mg/kg, N 10, listed as quercetin): 1.8±0.3 mm
- lesion volumes (epicardium; 24 hours after ablation, vs 25.7±8.6 control, p=0.01): 37.6 ± 10.5 µL
- adverse events related to HSP inhibition (epicardium; IV 10 mg/kg): No adverse events
- microscopy of lesions compared to controls (epicardium; in vivo): larger necrotic cores and border zones
- HSP expression (adenocarcinoma tumor): decreased HSP expression
- apoptosis (adenocarcinoma tumor): increased apoptosis
- tumor destruction (adenocarcinoma tumor): larger tumor destruction

SMILES: [Gd] [gadolinium]
- ablation lesion sizes after in vivo injection (myocardium): increased lesion sizes; also recorded: larger lesions
